Among the data in ChEMBL document CHEMBL4007467, “Effects of 6-paradol, an unsaturated ketone from gingers, on cytochrome P450-mediated drug metabolism” (Bioorg Med Chem Lett, 2017) are activity and IC50 values, retold here.

Holding throughout (format): ADME
The target of series [1] is T1, CYP1A2 (Homo sapiens, UniProt P05177).
T1 sequence (P05177 whole entry): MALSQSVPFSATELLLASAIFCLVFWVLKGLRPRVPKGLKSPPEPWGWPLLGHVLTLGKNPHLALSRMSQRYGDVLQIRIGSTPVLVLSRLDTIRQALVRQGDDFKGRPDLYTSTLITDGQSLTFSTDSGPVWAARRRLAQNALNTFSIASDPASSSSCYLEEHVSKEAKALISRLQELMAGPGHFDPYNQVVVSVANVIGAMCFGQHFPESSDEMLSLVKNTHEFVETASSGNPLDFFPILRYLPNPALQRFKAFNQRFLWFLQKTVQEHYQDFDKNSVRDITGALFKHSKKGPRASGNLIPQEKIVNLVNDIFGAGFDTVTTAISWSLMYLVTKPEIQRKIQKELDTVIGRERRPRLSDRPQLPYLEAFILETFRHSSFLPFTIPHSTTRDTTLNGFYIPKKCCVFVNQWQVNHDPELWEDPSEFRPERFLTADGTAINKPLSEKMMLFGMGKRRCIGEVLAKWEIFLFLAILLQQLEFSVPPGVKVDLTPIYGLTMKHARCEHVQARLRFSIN
Description: Inhibition of CYP1A2 in human liver microsomes assessed as enzyme-mediated metabolite formation at 10 uM using phenacetin as substrate incubated for 5 mins followed by NADPH addition measured after 30 mins by LC-MS/MS analysis relative to control. Also on record: scale not given: the % may be the effect or the level left. Conditions: probe phenacetin, read-out: Activity. In general terms: Liver microsomes are a subcellular fraction often used to study metabolism.

The target of series [2] is T1, CYP1A2. Briefly: Inhibition of CYP1A2 in human liver microsomes assessed as enzyme-mediated metabolite formation at 30 uM using phenacetin as substrate incubated for 5 mins followed by NADPH addition measured after 30 mins by LC-MS/MS analysis relative to control. Also on record: scale not given: the % may be the effect or the level left. Particulars: probe phenacetin, read-out: Activity.

Another series has as its target CYP2C19 (Homo sapiens, UniProt P33261). Briefly: Inhibition of CYP2C19 in human liver microsomes assessed as enzyme-mediated metabolite formation at 0.3 uM using (S)-mephenytoin as substrate incubated for 5 mins followed by NADPH addition measured after 30 mins by LC-MS/MS analysis relative to control. Also noted: scale not given: the % may be the effect or the level left. Conditions: probe (S)-mephenytoin, read-out: Activity.

Series [3] addresses T1, CYP1A2. Description: Inhibition of CYP1A2 in human liver microsomes assessed as enzyme-mediated metabolite formation at 0.1 uM using phenacetin as substrate preincubated for 20 mins followed by substrate addition measured after 30 mins in presence of NADPH by LC-MS/MS analysis relative to control. Also on record: scale not given: the % may be the effect or the level left. Conditions: probe phenacetin, read-out: Activity.

Another series deals with T2, CYP2A6 (Homo sapiens, UniProt P11509).
T2 sequence (P11509 whole entry): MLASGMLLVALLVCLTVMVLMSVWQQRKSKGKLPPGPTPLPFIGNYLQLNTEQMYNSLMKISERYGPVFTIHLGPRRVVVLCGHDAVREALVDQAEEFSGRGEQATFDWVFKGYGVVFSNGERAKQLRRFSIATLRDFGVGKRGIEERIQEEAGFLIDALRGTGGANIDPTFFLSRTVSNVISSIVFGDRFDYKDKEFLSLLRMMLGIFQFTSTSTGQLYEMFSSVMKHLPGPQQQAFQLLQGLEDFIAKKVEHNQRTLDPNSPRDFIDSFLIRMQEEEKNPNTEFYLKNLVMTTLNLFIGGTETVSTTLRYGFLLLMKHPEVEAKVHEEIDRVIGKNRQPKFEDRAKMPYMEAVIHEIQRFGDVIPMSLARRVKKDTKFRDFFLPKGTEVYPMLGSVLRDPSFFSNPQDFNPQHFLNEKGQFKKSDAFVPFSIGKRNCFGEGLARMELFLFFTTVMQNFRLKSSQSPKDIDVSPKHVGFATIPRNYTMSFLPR
Description: Inhibition of CYP2A6 in human liver microsomes assessed as enzyme-mediated metabolite formation at 10 uM using coumarin as substrate preincubated for 20 mins followed by substrate addition measured after 30 mins in presence of NADPH by LC-MS/MS analysis relative to control. Also on record: scale not given: the % may be the effect or the level left. Conditions: probe coumarin, read-out: Activity.

The next series concerns the target T3, Cytochrome P450 2C8 (Homo sapiens, UniProt P10632).
T3 sequence (P10632 whole entry): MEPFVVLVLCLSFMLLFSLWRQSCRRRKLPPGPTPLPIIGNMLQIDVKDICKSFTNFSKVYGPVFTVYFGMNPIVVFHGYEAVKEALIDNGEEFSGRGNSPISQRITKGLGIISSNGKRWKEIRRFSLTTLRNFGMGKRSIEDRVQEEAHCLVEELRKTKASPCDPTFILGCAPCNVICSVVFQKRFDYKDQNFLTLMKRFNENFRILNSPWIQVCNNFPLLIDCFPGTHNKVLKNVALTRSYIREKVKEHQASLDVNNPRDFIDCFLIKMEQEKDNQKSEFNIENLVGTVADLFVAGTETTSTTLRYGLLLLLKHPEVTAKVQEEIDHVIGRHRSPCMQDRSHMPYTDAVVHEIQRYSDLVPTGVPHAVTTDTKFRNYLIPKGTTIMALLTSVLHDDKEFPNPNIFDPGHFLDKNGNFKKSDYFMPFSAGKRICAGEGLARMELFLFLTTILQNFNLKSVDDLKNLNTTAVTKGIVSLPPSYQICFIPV
Description: Inhibition of CYP2C8 in human liver microsomes using paclitaxel as substrate preincubated for 20 mins followed by substrate addition measured after 30 mins in presence of NADPH by LC-MS/MS analysis.

Series [4] deals with T4, CYP2C9 (Homo sapiens, UniProt P11712). Briefly: Inhibition of CYP2C9 in human liver microsomes assessed as enzyme-mediated metabolite formation at 0.3 uM using diclofenac as substrate preincubated for 20 mins followed by substrate addition measured after 30 mins in presence of NADPH by LC-MS/MS analysis relative to control. Also noted: scale not given: the % may be the effect or the level left. Conditions: probe diclofenac, read-out: Activity.
T4 sequence (P11712 whole entry): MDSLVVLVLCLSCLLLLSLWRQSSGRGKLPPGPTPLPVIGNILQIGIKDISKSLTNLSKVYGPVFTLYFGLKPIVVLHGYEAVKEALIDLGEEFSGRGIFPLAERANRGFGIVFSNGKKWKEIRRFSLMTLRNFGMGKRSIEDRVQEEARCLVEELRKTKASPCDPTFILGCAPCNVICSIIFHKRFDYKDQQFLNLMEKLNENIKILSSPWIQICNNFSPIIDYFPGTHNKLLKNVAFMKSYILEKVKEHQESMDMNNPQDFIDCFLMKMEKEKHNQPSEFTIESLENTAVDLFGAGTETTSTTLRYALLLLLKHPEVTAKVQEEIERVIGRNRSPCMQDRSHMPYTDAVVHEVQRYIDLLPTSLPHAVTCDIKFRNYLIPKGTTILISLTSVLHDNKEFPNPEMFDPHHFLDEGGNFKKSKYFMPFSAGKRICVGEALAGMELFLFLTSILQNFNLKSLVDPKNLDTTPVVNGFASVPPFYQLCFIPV

Series [5] deals with T4, CYP2C9. Briefly: Inhibition of CYP2C9 in human liver microsomes assessed as enzyme-mediated metabolite formation at 3 uM using diclofenac as substrate preincubated for 20 mins followed by substrate addition measured after 30 mins in presence of NADPH by LC-MS/MS analysis relative to control. Also on record: scale not given: the % may be the effect or the level left. Particulars: probe diclofenac, read-out: Activity.

Series [6] concerns the target T5, CYP3A4 (Homo sapiens, UniProt P08684). Briefly: Inhibition of CYP3A4 in human liver microsomes assessed as enzyme-mediated metabolite formation at 1 uM using midazolam as substrate preincubated for 20 mins followed by substrate addition measured after 30 mins in presence of NADPH by LC-MS/MS analysis relative to control. Also on record: scale not given: the % may be the effect or the level left. Particulars: probe midazolam, read-out: Activity.

Series [7] addresses T5, CYP3A4. Description: Inhibition of CYP3A4 in human liver microsomes assessed as enzyme-mediated metabolite formation at 3 uM using testosterone as substrate preincubated for 20 mins followed by substrate addition measured after 30 mins in presence of NADPH by LC-MS/MS analysis relative to control. Also on record: scale not given: the % may be the effect or the level left. Particulars: probe testosterone, read-out: Activity.

T5 sequence (P08684 whole entry): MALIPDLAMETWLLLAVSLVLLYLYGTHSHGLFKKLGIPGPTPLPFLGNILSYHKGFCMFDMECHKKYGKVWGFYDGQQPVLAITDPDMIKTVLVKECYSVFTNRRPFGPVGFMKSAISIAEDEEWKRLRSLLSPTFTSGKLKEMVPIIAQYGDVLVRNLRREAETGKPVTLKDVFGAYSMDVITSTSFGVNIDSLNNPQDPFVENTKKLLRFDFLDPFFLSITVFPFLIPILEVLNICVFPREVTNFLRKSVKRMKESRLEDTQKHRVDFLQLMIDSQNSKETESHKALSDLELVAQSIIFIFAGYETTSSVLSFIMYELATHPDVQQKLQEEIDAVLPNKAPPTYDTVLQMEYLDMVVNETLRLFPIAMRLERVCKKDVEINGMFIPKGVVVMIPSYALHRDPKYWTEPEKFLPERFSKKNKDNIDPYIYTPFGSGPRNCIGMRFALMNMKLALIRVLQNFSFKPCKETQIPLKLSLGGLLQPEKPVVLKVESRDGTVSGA
Sequence of CYP2C19 (P33261 whole entry): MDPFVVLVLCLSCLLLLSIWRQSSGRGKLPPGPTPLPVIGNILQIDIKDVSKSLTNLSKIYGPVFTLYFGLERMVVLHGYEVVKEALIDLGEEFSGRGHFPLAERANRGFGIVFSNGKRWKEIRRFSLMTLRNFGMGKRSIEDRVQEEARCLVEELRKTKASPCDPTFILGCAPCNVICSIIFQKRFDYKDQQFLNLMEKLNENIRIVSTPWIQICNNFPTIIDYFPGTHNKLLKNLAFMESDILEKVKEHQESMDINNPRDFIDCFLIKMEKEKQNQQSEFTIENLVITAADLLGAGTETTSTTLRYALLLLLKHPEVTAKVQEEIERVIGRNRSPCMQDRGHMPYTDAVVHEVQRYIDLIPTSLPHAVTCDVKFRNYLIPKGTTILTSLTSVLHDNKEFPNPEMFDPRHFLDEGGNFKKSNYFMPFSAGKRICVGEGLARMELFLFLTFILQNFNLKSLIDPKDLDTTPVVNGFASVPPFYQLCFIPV

One may read the IC50 as the concentration needed to halve the response being measured. With `CCCCCCCC(=O)CCc1ccc(O)c(OC)c1`, the figures for the activity at 0.5 h, 10 µM on CYP1A2 [1] and on CYP2A6 were 49.7% and 96.1%, respectively. Also, the activity at 0.5 h, 30 µM at CYP1A2 [2] is 35.5%. In addition, the results for the activity at 0.5 h, 0.3 µM on CYP2C19 and on CYP2C9 [4] were 85.8% and 72.6%, respectively. In addition, the activity at 0.5 h, 0.1 µM at CYP1A2 [3] came to 97.2%. For the same molecule, the concentration for half-maximal inhibition (IC50) on Cytochrome P450 2C8 was 8.3 µM. Besides, the activity at 0.5 h, 3 µM was 78.8% on CYP2C9 [5] and 95.8% at CYP3A4 [7]. The activity at 0.5 h, 1 µM on CYP3A4 [6] stood at 91.5%.
